Test results as given in patent US11857519B2, “Compounds and methods for the targeted degradation of enhancer of zeste homolog 2 polypeptide” (Arvinas Operations, Inc., priority 2016, dated 2024).

Biological target: T1, EZH2 (Homo sapiens, UniProt Q15910)
T1 construct: Protocol of the Cellular Assay of Target Protein Degradation (VCaP Cells, ELISA); endogenous in cells; host or cells: VCaP cells
Test: Cellular assay of target protein degradation (VCaP cells, ELISA)
Assay type: cell-based
Details: 4 hours, protein degradation range at indicated concentration (relative to DMSO control)
In short: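 VCaP cells grown ≥3 days in RPMI with 5% CSS, then dosed with compounds in 0.1% DMSO for 4 h. Lysates analysed by sandwich ELISA for EZH2 with TMB readout at 450 nm, 562 nm used for background subtraction.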

T1 sequence (Q15910 whole entry): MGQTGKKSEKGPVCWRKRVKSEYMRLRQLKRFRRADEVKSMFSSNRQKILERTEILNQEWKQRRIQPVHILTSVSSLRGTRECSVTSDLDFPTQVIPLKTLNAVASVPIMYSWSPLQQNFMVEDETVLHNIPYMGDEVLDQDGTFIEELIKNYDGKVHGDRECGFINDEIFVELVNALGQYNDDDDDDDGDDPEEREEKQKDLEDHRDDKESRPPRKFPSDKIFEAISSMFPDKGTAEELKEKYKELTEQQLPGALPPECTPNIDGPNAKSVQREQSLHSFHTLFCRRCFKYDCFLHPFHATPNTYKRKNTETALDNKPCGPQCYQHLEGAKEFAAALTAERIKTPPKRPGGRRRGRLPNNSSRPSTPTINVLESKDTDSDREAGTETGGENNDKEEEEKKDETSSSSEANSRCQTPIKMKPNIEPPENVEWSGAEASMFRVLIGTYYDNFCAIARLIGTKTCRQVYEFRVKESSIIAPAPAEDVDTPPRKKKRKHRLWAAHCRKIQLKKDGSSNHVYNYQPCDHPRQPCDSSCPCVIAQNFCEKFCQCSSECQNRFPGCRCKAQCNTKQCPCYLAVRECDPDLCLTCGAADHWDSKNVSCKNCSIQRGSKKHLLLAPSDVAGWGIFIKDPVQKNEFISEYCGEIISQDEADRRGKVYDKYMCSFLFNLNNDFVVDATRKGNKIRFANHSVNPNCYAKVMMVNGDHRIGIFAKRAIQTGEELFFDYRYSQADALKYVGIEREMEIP
T1 sequence (O75530 whole entry partner): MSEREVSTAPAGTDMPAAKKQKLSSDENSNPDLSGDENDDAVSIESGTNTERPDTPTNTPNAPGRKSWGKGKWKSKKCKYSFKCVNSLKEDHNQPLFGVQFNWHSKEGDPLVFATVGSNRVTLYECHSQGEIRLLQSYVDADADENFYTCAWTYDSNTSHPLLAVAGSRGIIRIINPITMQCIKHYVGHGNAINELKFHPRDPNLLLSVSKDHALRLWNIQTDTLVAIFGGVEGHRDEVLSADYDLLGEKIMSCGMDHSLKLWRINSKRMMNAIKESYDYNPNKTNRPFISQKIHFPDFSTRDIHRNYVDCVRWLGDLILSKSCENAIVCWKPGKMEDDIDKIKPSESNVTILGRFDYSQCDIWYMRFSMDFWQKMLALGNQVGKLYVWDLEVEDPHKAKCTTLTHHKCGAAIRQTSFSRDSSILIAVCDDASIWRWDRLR
T1 sequence (Q15022 whole entry partner): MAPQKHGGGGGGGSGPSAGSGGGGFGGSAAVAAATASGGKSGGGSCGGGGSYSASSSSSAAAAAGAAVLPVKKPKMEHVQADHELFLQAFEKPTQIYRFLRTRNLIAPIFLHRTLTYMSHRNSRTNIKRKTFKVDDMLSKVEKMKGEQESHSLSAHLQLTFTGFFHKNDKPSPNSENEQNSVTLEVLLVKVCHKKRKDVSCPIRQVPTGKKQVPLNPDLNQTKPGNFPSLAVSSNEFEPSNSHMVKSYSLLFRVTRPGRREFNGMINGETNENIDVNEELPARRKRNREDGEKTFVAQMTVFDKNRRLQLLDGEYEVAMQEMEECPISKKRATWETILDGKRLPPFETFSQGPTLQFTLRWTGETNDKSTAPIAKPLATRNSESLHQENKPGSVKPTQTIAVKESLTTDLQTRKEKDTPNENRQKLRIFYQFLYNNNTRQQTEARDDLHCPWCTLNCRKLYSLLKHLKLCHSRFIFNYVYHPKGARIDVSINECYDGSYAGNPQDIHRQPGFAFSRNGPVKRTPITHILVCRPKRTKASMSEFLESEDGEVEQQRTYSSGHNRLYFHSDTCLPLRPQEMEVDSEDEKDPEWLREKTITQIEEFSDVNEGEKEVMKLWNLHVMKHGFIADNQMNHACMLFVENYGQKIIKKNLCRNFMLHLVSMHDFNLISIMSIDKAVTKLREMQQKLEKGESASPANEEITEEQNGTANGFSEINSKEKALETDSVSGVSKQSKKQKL

SMILES	percent target protein degradation class
Cc1cc(C)c(CNC(=O)c2cc(-c3ccc(CN4CCN(CCOCCOCC(=O)N[C@H](C(=O)N5C[C@H](O)C[C@H]5C(=O)NCc5ccc(-c6scnc6C)cc5)C(C)(C)C)CC4)cc3)cc3c2ccn3C2CCCC2)c(=O)[nH]1 [Compound 2, 1-cyclopentyl-N-[(4,6-dimethyl-2-oxo-1,2-dihydropyridin-3-yl)methyl]-6-{4-[(4-{2-[2-({[(2S)-1-[(2S,4R)-4-hydroxy-2-({[4-(4-methyl-1,3-thiazol-5-yl)phenyl]methyl}carbamoyl)pyrrolidin-1-yl]-3,3-dimethyl-1-oxobutan-2-yl]carbamoyl}methoxy)ethoxy]ethyl)piperazin-1-yl)methyl]phenyl}-1H-indole-4-carboxamide]	B (B = degradation between 30% and 60%)
CCN(c1cc(-c2ccc(COCCOc3ccc4c(c3)C(=O)N([C@H](C(=O)N3C[C@H](O)C[C@H]3C(=O)N[C@@H](C)c3ccc(-c5scnc5C)cc3)C(C)C)C4)cc2)cc(C(=O)NCc2c(C)cc(C)[nH]c2=O)c1C)C1CCOCC1 [Compound 99, (2S,4R)-1-((S)-2-(6-(2-((3′-((4,6-dimethyl-2-oxo-1,2-dihydropyridin-3-yl)methylcarbamoyl)-5′-(ethyl(tetrahydro-2H-pyran-4-yl)amino)-4′-methylbiphenyl-4-yl)methoxy)ethoxy)-1-oxoisoindolin-2-yl)-3-methylbutanoyl)-4-hydroxy-N—((S)-1-(4-(4-methylthiazol-5-yl)phenyl)ethyl)pyrrolidine-2-carboxamide]	A (A = degradation more than 60%)
CCN(c1cc(-c2ccc(OCCCCOc3cc(-c4scnc4C)ccc3CNC(=O)[C@@H]3C[C@@H](O)CN3C(=O)[C@H](C(C)C)N3Cc4ccccc4C3=O)cc2)cc(C(=O)NCc2c(C)cc(C)[nH]c2=O)c1C)C1CCOCC1 [Compound 63, (2S,4R)-N-[(2-{4-[4-(3-{[(4,6-dimethyl-2-oxo-1,2-dihydropyridin-3-yl)methyl]carbamoyl}-5-[ethyl(oxan-4-yl)amino]-4-methylphenyl)phenoxy]butoxy}-4-(4-methyl-1,3-thiazol-5-yl)phenyl)methyl]-4-hydroxy-1-[(2S)-3-methyl-2-(1-oxo-2,3-dihydro-1H-isoindol-2-yl)butanoyl]pyrrolidine-2-carboxamide]	B (B = degradation between 30% and 60%)
CCN(c1cc(-c2ccc(OCCCCOCCCOc3cc(-c4scnc4C)ccc3CNC(=O)[C@@H]3C[C@@H](O)CN3C(=O)[C@H](C(C)C)N3Cc4ccccc4C3=O)cc2)cc(C(=O)NCc2c(C)cc(C)[nH]c2=O)c1C)C1CCOCC1 [Compound 40, (2S,4R)-N-{[2-(3-{4-[4-(3-{[(4,6-dimethyl-2-oxo-1,2-dihydropyridin-3-yl)methyl]carbamoyl}-5-[ethyl(oxan-4-yl)amino]-4-methylphenyl)phenoxy]butoxy}propoxy)-4-(4-methyl-1,3-thiazol-5-yl)phenyl]methyl}-4-hydroxy-1-[(2S)-3-methyl-2-(1-oxo-2,3-dihydro-1H-isoindol-2-yl)butanoyl]pyrrolidine-2-carboxamide]	B (B = degradation between 30% and 60%)
CCN(c1cc(-c2ccc(OCCCCCOc3cc(C(C(=O)N4C[C@H](O)C[C@H]4C(=O)N[C@@H](C)c4ccc(-c5scnc5C)cc4)C(C)C)on3)cc2)cc(C(=O)NCc2c(C)cc(C)[nH]c2=O)c1C)C1CCOCC1 (stereo partly drawn) [Compound 104, (2S,4R)-1-(2-(3-(5-(3′-((4,6-dimethyl-2-oxo-1,2-dihydropyridin-3-yl)methylcarbamoyl)-5′-(ethyl(tetrahydro-2H-pyran-4-yl)amino)-4′-methylbiphenyl-4-yloxy)pentyloxy)isoxazol-5-yl)-3-methylbutanoyl)-4-hydroxy-N—((S)-1-(4-(4-methylthiazol-5-yl)phenyl)ethyl)pyrrolidine-2-carboxamide]	A (A = degradation more than 60%)
Cc1cc(C)c(CNC(=O)c2cc(-c3ccc(CN4CCN(CCOCCCCOCC(=O)N[C@H](C(=O)N5C[C@H](O)C[C@H]5C(=O)NCc5ccc(-c6scnc6C)cc5)C(C)(C)C)CC4)cc3)cc3c2ccn3C2CCCC2)c(=O)[nH]1 [Compound 3, 1-cyclopentyl-N-[(4,6-dimethyl-2-oxo-1,2-dihydropyridin-3-yl)methyl]-6-{4-[(4-{2-[4-({[(2S)-1-[(2S,4R)-4-hydroxy-2-({[4-(4-methyl-1,3-thiazol-5-yl)phenyl]methyl}carbamoyl)pyrrolidin-1-yl]-3,3-dimethyl-1-oxobutan-2-yl]carbamoyl}methoxy)butoxy]ethyl}piperazin-1-yl)methyl]phenyl}-1H-indole-4-carboxamide]	B (B = degradation between 30% and 60%)
Cc1cc(C)c(CNC(=O)c2c(C)n(C(C)C3CCN(C(=O)COCCOCCOCCOCCOCCNc4cccc5c4C(=O)N(C4CCC(=O)NC4=O)C5=O)CC3)c3ccccc23)c(=O)[nH]1 (stereo not drawn) [Compound 12, N-[(4,6-dimethyl-2-oxo-1,2-dihydropyridin-3-yl)methyl]-1-[1-(1-{1-[2-(2,6-dioxopiperidin-3-yl)-1,3-dioxo-2,3-dihydro-1H-isoindol-4-yl]-4,7,10,13,16-pentaoxa-1-azaoctadecanoyl}piperidin-4-yl)ethyl]-2-methyl-1H-indole-3-carboxamide]	B (B = degradation between 30% and 60%)

The remaining lines, values ahead:

percent target protein degradation class	SMILES
B (B = degradation between 30% and 60%)	CCN(c1cc(-c2ccc(OCCOCCOCCNc3cccc4c3C(=O)N(C3CCC(=O)NC3=O)C4=O)cc2)cc(C(=O)NCc2c(C)cc(C)[nH]c2=O)c1C)C1CCOCC1 (stereo not drawn) [Compound 33, N-[(4,6-dimethyl-2-oxo-1,2-dihydropyridin-3-yl)methyl]-5-(4-{2-[2-(2-{[2-(2,6-dioxopiperidin-3-yl)-1,3-dioxo-2,3-dihydro-1H-isoindol-4-yl]amino}ethoxy)ethoxy]ethoxy}phenyl)-3-[ethyl(oxan-4-yl)amino]-2-methylbenzamide]
B (B = degradation between 30% and 60%)	CCN(c1cc(-c2ccccc2OCCOCCOCCOCCOCCOCCNc2cccc3c2C(=O)N(C2CCC(=O)NC2=O)C3=O)cc(C(=O)NCc2c(C)cc(C)[nH]c2=O)c1C)C1CCOCC1 (stereo not drawn) [Compound 25, N-[(4,6-dimethyl-2-oxo-1,2-dihydropyridin-3-yl)methyl]-5-[2-({1-[2-(2,6-dioxopiperidin-3-yl)-1,3-dioxo-2,3-dihydro-1H-isoindol-4-yl]-4,7,10,13,16-pentaoxa-1-azaoctadecan-18-yl}oxy)phenyl]-3-[ethyl(oxan-4-yl)amino]-2-methylbenzamide]
B (B = degradation between 30% and 60%)	CCN(c1cc(-c2ccc(OCCCOCCCOc3ccc4c(c3)C(=O)N(C3CCC(=O)NC3=O)C4=O)cc2)cc(C(=O)NCc2c(C)cc(C)[nH]c2=O)c1C)C1CCOCC1 (stereo not drawn) [Compound 62, N-[(4,6-dimethyl-2-oxo-1,2-dihydropyridin-3-yl)methyl]-5-{4-[3-(3-{[2-(2,6-dioxopiperidin-3-yl)-1,3-dioxo-2,3-dihydro-1H-isoindol-5-yl]oxy}propoxy)propoxy]pheny 1}-3-[ethyl(oxan-4-yl)amino]-2-methylbenzamide]
A (A = degradation more than 60%)	CCN(c1cc(-c2ccc(CCCOCCOCC(=O)N[C@H](C(=O)N3C[C@H](O)C[C@H]3C(=O)N[C@@H](C)c3ccc(-c4scnc4C)cc3)C(C)(C)C)cc2)cc(C(=O)NCc2c(C)cc(C)[nH]c2=O)c1C)C1CCOCC1 [Compound 89]
B (B = degradation between 30% and 60%)	CCN(c1cc(-c2ccc(OCCOCCOCCOCCOCCOCCOCCOCCOCCNc3cccc4c3C(=O)N(C3CCC(=O)NC3=O)C4=O)cc2)cc(C(=O)NCc2c(C)cc(C)[nH]c2=O)c1C)C1CCOCC1 (stereo not drawn) [Compound 23, N-[(4,6-dimethyl-2-oxo-1,2-dihydropyridin-3-yl)methyl]-5-[4-({l-[2-(2,6-dioxopiperidin-3-yl)-1,3-dioxo-2,3-dihydro-1H-isoindol-4-yl]-4,7,10,13,16,19,22,25-octaoxa-1-azaheptacosan-27-yl}oxy)phenyl]-3-[ethyl(oxan-4-yl)amino]-2-methylbenzamide]
B (B = degradation between 30% and 60%)	CCN(c1cc(-c2ccc(OCCOCCNc3cccc4c3C(=O)N(C3CCC(=O)NC3=O)C4=O)cc2)cc(C(=O)NCc2c(C)cc(C)[nH]c2=O)c1C)C1CCOCC1 (stereo not drawn) [Compound 34, N-[(4,6-dimethyl-2-oxo-1,2-dihydropyridin-3-yl)methyl]-5-{4-[2-(2-{[2-(2,6-dioxopiperidin-3-yl)-1,3-dioxo-2,3-dihydro-1H-isoindol-4-yl]amino}ethoxy)ethoxy]phenyl}-3-[ethyl(oxan-4-yl)amino]-2-methylbenzamide]
B (B = degradation between 30% and 60%)	CCN(c1cc(-c2ccc(OCCOCCOc3cc(-c4scnc4C)ccc3CNC(=O)[C@@H]3C[C@@H](O)CN3C(=O)[C@H](C(C)C)N3Cc4ccccc4C3=O)cc2)cc(C(=O)NCc2c(C)cc(C)[nH]c2=O)c1C)C1CCOCC1 [Compound 38, (2S,4R)-N-{[2-(2-{2-[4-(3-{[(4,6-dimethyl-2-oxo-1,2-dihydropyridin-3-yl)methyl]carbamoyl}-5-[ethyl(oxan-4-yl)amino]-4-methylphenyl)phenoxy]ethoxy}ethoxy)-4-(4-methyl-1,3-thiazol-5-yl)phenyl]methyl}-4-hydroxy-1-[(2S)-3-methyl-2-(1-oxo-2,3-dihydro-1H-isoindol-2-yl)butanoyl]pyrrolidine-2-carboxamide]
B (B = degradation between 30% and 60%)	CCN(c1cc(-c2ccc(OCCOCCOCC(=O)N[C@H](C(=O)N3C[C@@H](O)C[C@@H]3C(=O)N[C@@H](C)c3ccc(-c4scnc4C)cc3)C(C)(C)C)cc2)cc(C(=O)NCc2c(C)cc(C)[nH]c2=O)c1C)C1CCOCC1 [Compound 96, (2R,4S)-1-((S)-2-(2-(2-(2-((3′-(((4,6-dimethyl-2-oxo-1,2-dihydropyridin-3-yl)methyl)carbamoyl)-5′-(ethyl(tetrahydro-2H-pyran-4-yl)amino)-4′-methyl-[1,1′-biphenyl]-4-yl)oxy)ethoxy)ethoxy)acetamido)-3,3-dimethylbutanoyl)-4-hydroxy-N-((S)-1-(4-(4-methylthiazol-5-yl)phenyl)ethyl)pyrrolidine-2-carboxamide]
